According to patent publication US20240116985A1, “STAPLED PEPTIDES AND METHODS THEREOF” (priority 2020, published 2024):
Values after ≈ are worked out from the molar mass of the structure shown. Where two headings read alike, the source gives them in different places.

Key:
Solubility in PBS = format: physicochemical
How it was run: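 Solubility is derived from HPLC peak areas: the ratio of the PBS supernatant peak to a 50 μM DMSO peptide peak, times 50 uM.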

[1] = molecular target: T1, beta-catenin/TCF4 engagement (Homo sapiens, UniProt P35222); test: Nano-BRET target engagement assay (B-cat-Halo & TCF4-Luc in HEK293 cells); format: cell-based; details: absolute IC50; read-out: NanoBRET Abs IC50
T1 construct: expressed in transfected cells; host or cells: HEK293
T1 sequence (P35222 1-781): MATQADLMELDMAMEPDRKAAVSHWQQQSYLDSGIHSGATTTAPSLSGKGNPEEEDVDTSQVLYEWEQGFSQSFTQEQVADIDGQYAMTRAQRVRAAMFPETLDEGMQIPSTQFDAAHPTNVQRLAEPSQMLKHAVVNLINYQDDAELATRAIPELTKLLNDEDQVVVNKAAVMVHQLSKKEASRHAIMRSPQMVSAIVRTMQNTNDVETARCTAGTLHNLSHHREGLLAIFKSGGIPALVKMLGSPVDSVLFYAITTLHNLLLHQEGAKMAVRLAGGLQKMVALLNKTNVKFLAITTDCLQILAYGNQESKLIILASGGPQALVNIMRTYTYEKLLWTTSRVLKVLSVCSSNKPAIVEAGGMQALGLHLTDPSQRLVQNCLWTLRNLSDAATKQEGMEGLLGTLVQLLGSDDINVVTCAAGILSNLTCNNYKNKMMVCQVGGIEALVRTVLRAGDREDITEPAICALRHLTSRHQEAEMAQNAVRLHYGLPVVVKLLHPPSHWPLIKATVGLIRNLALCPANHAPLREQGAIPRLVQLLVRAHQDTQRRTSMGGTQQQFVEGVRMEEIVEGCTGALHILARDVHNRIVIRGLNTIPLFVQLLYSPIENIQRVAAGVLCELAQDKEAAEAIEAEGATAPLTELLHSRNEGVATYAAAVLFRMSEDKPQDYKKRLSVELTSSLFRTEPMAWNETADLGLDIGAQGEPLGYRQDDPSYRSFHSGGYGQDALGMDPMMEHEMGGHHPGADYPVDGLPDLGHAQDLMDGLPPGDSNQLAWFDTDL

[2] = molecular target: T2, full-length beta-Catenin (Uniprot ID P35222) (Homo sapiens, UniProt P35222); test: Fluorescence polarization IC50 (beta-catenin / 5FAM-TCF4 10-53 competition); format: binding; details: fluorescence polarization; read-out: beta-Catenin FP IC50
T2 construct: 10 nM full-length beta-Catenin (Uniprot ID P35222)
T2 sequence (P35222 1-781): T1 sequence (P35222 1-781)

| Solubility (Solubility in PBS) [µM] | IC50 [1] [µM] | IC50 [2] [nM] | Solubility (Solubility in PBS; Solubility (uM)) [µM] | Structure (SMILES) |
| --- | --- | --- | --- | --- |
| 10 (≈ 18.8 µg/mL) | 28.6 | 59 | – | CC(=O)N1CCC[C@]12CC=CCCCC1(CCCC=CCCCOC(=O)N3CC[C@@](C(=O)N[C@@H](Cc4ccccc4Cl)C(=O)N[C@@H](Cc4csc5ccccc45)C(=O)N[C@H](CO)[C@@H](C)O)(C3)NC(=O)[C@H]([C@@H](C)O)NC(=O)[C@H](Cc3ccccc3)NC(=O)[C@H](C)NC(=O)[C@H](C)NC(=O)[C@H]([C@@H](C)O)NC(=O)[C@H](CC(=O)O)NC1=O)NC(=O)[C@H](CC(C)(C)C)NC(=O)[C@H](CC(=O)O)NC2=O (stereo partly drawn) [I-1309, Ac-PL3-Asp-Npg-B5-Asp-Thr-Ala-Ala-Phe-Thr-PyrS2-2C1F-BztA-Thro1] |
| 10 (≈ 19.1 µg/mL) | > 20 | 124 | – | CC(=O)N1CCC[C@]12CC=CCCCC1(CCCC=CCCCOC(=O)N3CC[C@@](C(=O)N[C@@H](Cc4ccccc4Cl)C(=O)N[C@@H](Cc4csc5ccccc45)C(=O)N[C@H](CO)[C@@H](C)O)(C3)NC(=O)[C@H]([C@@H](C)O)NC(=O)[C@H](Cc3ccccc3)NC(=O)[C@H](C)NC(=O)[C@H](C)NC(=O)[C@H]([C@@H](C)O)NC(=O)[C@H](CC(=O)O)NC1=O)NC(=O)[C@H](CC1CCCCC1)NC(=O)[C@H](CC(=O)O)NC2=O (stereo partly drawn) [I-1310, Ac-PL3-Asp-Cha-B5-Asp-Thr-Ala-Ala-Phe-Thr-PyrS2-2ClF-BztA-Thro1] |
| 10 (≈ 19.4 µg/mL) | 20.6 | 38 | – | CC(=O)N1CCC[C@]12CC=CCCCC1(CCCC=CCCCOC(=O)N3CC[C@@](C(=O)N[C@@H](Cc4ccccc4Cl)C(=O)N[C@@H](Cc4csc5ccccc45)C(=O)N[C@H](CO)[C@@H](C)O)(C3)NC(=O)[C@H](Cc3ccccc3)NC(=O)[C@H](Cc3ccccc3)NC(=O)[C@H](C)NC(=O)[C@H](C)NC(=O)[C@H](CC(=O)O)NC(=O)[C@H](CC(=O)O)NC1=O)NC(=O)[C@H](CC(C)(C)C)NC(=O)[C@H](CC(=O)O)NC2=O (stereo partly drawn) [I-1311, Ac-PL3-Asp-Npg-B5-Asp-Asp-Ala-Ala-Phe-Phe-PyrS2-2C1F-BztA-Thro1] |
| – | 16.1 | 14 | 46 (≈ 88.3 µg/mL) | CC(=O)N1CCC[C@]12CC=CCCCC1(CCCC=CCCCOC(=O)N3CC[C@@](C(=O)N[C@@H](Cc4ccccc4Cl)C(=O)N[C@@H](Cc4csc5ccccc45)C(=O)N[C@H](CO)[C@@H](C)O)(C3)NC(=O)[C@H]([C@@H](C)O)NC(=O)[C@H](Cc3ccccc3)NC(=O)[C@H](C)NC(=O)[C@H](C)NC(=O)[C@H](CC(=O)O)NC(=O)[C@H](CC(=O)O)NC1=O)NC(=O)[C@H](CC1CCCCC1)NC(=O)[C@H](CC(=O)O)NC2=O (stereo partly drawn) [I-1312, Ac-PL3-Asp-Cha-B5-Asp-Asp-Ala-Ala-Phe-Thr-PyrS2-2C1F-BztA-Thro1] |
| – | > 20 | 9 | 48 (≈ 93.8 µg/mL) | CC(=O)N1CCC[C@]12CC=CCCCC1(CCCC=CCCCOC(=O)N3CC[C@@](C(=O)N[C@@H](Cc4ccccc4C(N)=O)C(=O)N[C@@H](Cc4csc5ccccc45)C(=O)N[C@@H](CCC(N)=O)C(N)=O)(C3)NC(=O)[C@H](CC(N)=O)NC(=O)[C@H](Cc3ccccc3)NC(=O)[C@H](C)NC(=O)[C@H](C)NC(=O)[C@H](CC(=O)O)NC(=O)[C@H](CC(=O)O)NC1=O)NC(=O)[C@H](CC(C)(C)C)NC(=O)[C@H](CC(=O)O)NC2=O (stereo partly drawn) [I-1314, Ac-PL3-Asp-Npg-B5-Asp-Asp-Ala-Ala-Phe-Asn-PyrS2-2cbmF-BztA-Gln-NH2] |
| 10 (≈ 19.5 µg/mL) | 7.2 | 13 | – | CC(=O)N1CCC[C@]12CC=CCCCC1(CCCC=CCCCOC(=O)N3CC[C@@](C(=O)N[C@@H](Cc4ccccc4C(N)=O)C(=O)N[C@@H](Cc4csc5ccccc45)C(=O)N[C@@H](CCC(N)=O)C(N)=O)(C3)NC(=O)[C@H](CC(C)C)NC(=O)[C@H](Cc3ccccc3)NC(=O)[C@H](C)NC(=O)[C@H](C)NC(=O)[C@H](CC(=O)O)NC(=O)[C@H](CC(=O)O)NC1=O)NC(=O)[C@H](CC(C)(C)C)NC(=O)[C@H](CC(=O)O)NC2=O (stereo partly drawn) [I-1315, Ac-PL3-Asp-Npg-B5-Asp-Asp-Ala-Ala-Phe-Leu-PyrS2-2cbmF-BztA-Gln-NH2] |
| – | 6.8 | 11 | 48 (≈ 95.4 µg/mL) | CC(=O)N1CCC[C@]12CC=CCCCC1(CCCC=CCCCOC(=O)N3CC[C@@](C(=O)N[C@@H](Cc4ccccc4C(N)=O)C(=O)N[C@@H](Cc4csc5ccccc45)C(=O)N[C@@H](CCC(N)=O)C(N)=O)(C3)NC(=O)[C@H](Cc3ccccc3)NC(=O)[C@H](Cc3ccccc3)NC(=O)[C@H](C)NC(=O)[C@H](C)NC(=O)[C@H](CC(=O)O)NC(=O)[C@H](CC(=O)O)NC1=O)NC(=O)[C@H](CC(C)(C)C)NC(=O)[C@H](CC(=O)O)NC2=O (stereo partly drawn) [I-1316, Ac-PL3-Asp-Npg-B5-Asp-Asp-Ala-Ala-Phe-Phe-PyrS2-2cbmF-BztA-Gln-NH2] |
| – | 9.7 | 9 | 49 (≈ 97 µg/mL) | CC(=O)N1CCC[C@]12CC=CCCCC1(CCCC=CCCCOC(=O)N3CC[C@@](C(=O)N[C@@H](Cc4ccccc4C(F)(F)F)C(=O)N[C@@H](Cc4csc5ccccc45)C(=O)N[C@@H](CCC(N)=O)C(N)=O)(C3)NC(=O)[C@H](CC(N)=O)NC(=O)[C@H](Cc3ccccc3)NC(=O)[C@H](C)NC(=O)[C@H](C)NC(=O)[C@H](CC(=O)O)NC(=O)[C@H](CC(=O)O)NC1=O)NC(=O)[C@H](CC(C)(C)C)NC(=O)[C@H](CC(=O)O)NC2=O (stereo partly drawn) [I-1317, Ac-PL3-Asp-Npg-B5-Asp-Asp-Ala-Ala-Phe-Asn-PyrS2-2F3MeF-BztA-Gln-NH2] |
| – | 26.2 | 10 | 44 (≈ 84.9 µg/mL) | CC(=O)N1CCC[C@]12CC=CCCCC1(CCCC=CCCCOC(=O)N3CC[C@@](C(=O)N[C@@H](Cc4ccccc4F)C(=O)N[C@@H](Cc4csc5ccccc45)C(=O)N[C@@H](CCC(N)=O)C(N)=O)(C3)NC(=O)[C@H](CC(N)=O)NC(=O)[C@H](Cc3ccccc3)NC(=O)[C@H](C)NC(=O)[C@H](C)NC(=O)[C@H](CC(=O)O)NC(=O)[C@H](CC(=O)O)NC1=O)NC(=O)[C@H](CC(C)(C)C)NC(=O)[C@H](CC(=O)O)NC2=O (stereo partly drawn) [I-1320, Ac-PL3-Asp-Npg-B5-Asp-Asp-Ala-Ala-Phe-Asn-PyrS2-2FF-BztA-Gln-NH2] |
| – | 10.9 | 8 | 48 (≈ 92.6 µg/mL) | CC(=O)N1CCC[C@]12CC=CCCCC1(CCCC=CCCCOC(=O)N3CC[C@@](C(=O)N[C@@H](Cc4ccccc4F)C(=O)N[C@@H](Cc4csc5ccccc45)C(=O)N[C@@H](CCC(N)=O)C(N)=O)(C3)NC(=O)[C@H](CC(C)C)NC(=O)[C@H](Cc3ccccc3)NC(=O)[C@H](C)NC(=O)[C@H](C)NC(=O)[C@H](CC(=O)O)NC(=O)[C@H](CC(=O)O)NC1=O)NC(=O)[C@H](CC(C)(C)C)NC(=O)[C@H](CC(=O)O)NC2=O (stereo partly drawn) [I-1321, Ac-PL3-Asp-Npg-B5-Asp-Asp-Ala-Ala-Phe-Leu-PyrS2-2FF-BztA-Gln-NH2] |
| – | 9.1 | 11 | 33 (≈ 64.8 µg/mL) | CC(=O)N1CCC[C@]12CC=CCCCC1(CCCC=CCCCOC(=O)N3CC[C@@](C(=O)N[C@@H](Cc4ccccc4F)C(=O)N[C@@H](Cc4csc5ccccc45)C(=O)N[C@@H](CCC(N)=O)C(N)=O)(C3)NC(=O)[C@H](Cc3ccccc3)NC(=O)[C@H](Cc3ccccc3)NC(=O)[C@H](C)NC(=O)[C@H](C)NC(=O)[C@H](CC(=O)O)NC(=O)[C@H](CC(=O)O)NC1=O)NC(=O)[C@H](CC(C)(C)C)NC(=O)[C@H](CC(=O)O)NC2=O (stereo partly drawn) [I-1322, Ac-PL3-Asp-Npg-B5-Asp-Asp-Ala-Ala-Phe-Phe-PyrS2-2FF-BztA-Gln-NH2] |
| – | 11.7 | 6 | 48 (≈ 95.6 µg/mL) | CC(=O)N1CCC[C@]12CC=CCCCC1(CCCC=CCCCOC(=O)N3CC[C@@](C(=O)N[C@@H](Cc4ccccc4Br)C(=O)N[C@@H](Cc4csc5ccccc45)C(=O)N[C@@H](CCC(N)=O)C(N)=O)(C3)NC(=O)[C@H](CC(N)=O)NC(=O)[C@H](Cc3ccccc3)NC(=O)[C@H](C)NC(=O)[C@H](C)NC(=O)[C@H](CC(=O)O)NC(=O)[C@H](CC(=O)O)NC1=O)NC(=O)[C@H](CC(C)(C)C)NC(=O)[C@H](CC(=O)O)NC2=O (stereo partly drawn) [I-1323, Ac-PL3-Asp-Npg-B5-Asp-Asp-Ala-Ala-Phe-Asn-PyrS2-2BrF-BztA-Gln-NH2] |
| – | 5.5 | 9 | 12 (≈ 24.2 µg/mL) | CC(=O)N1CCC[C@]12CC=CCCCC1(CCCC=CCCCOC(=O)N3CC[C@@](C(=O)N[C@@H](Cc4ccsc4)C(=O)N[C@@H](Cc4csc5ccccc45)C(=O)N[C@@H](CCC(N)=O)C(N)=O)(C3)NC(=O)[C@H](Cc3ccccc3C(F)(F)F)NC(=O)[C@H](Cc3ccccc3)NC(=O)[C@H](C)NC(=O)[C@H](C)NC(=O)[C@H](CC(=O)O)NC(=O)[C@H](CC(=O)O)NC1=O)NC(=O)[C@H](CC(C)(C)C)NC(=O)[C@H](CC(=O)O)NC2=O (stereo partly drawn) [I-1363, Ac-PL3-Asp-Npg-B5-Asp-Asp-Ala-Ala-Phe-2F3MeF-PyrS2-3Thi-BztA-Gln-NH2] |
